This note sets out measurements from patent US9302993B2, “8-hydroxy quinoline derivatives” (PRANA BIOTECHNOLOGY LIMITED, priority 2002, dated 2016).

The test system of one data set is Neuronal cortical cells. The experiment in a line: Assay for test compound cytoxicity, MTS (Assay 3(d)). Format: cell-based, mouse. The note with it: BL6J×129sv, mouse, 4 days. Here is the method:
(§1) Media was then replaced with Neurobasal media (Invitrogen Life Technologies) and B27 supplements (Invitrogen Life Technologies). Cultures were maintained at 37° C. in 5% CO2. Prior to experimentation, the culture medium was replaced with Neurobasal media and B27 minus antioxidants (Invitrogen Life Technologies).
Cell viability is determined using the MTS assay. Culture medium is […] replaced with fresh neurobasal medium plus B27 supplements minus antioxidants. 1/10th volume MTS solution (Cell Titre 96 Aqueous One, Promega Corporation) and incubated at 37° C., 2 hrs. 200 microliter aliquots are measured with a spectrophotometer at 560 nm.
(d) Assay for Test Compound Cytoxicity
Neuronal cortical cells were cultured for five days as per Assay 2 in NB media and B27 supplement.
On day six the test compounds were added to the neuronal cell cultures in NB media and B27 supplement minus antioxidants.
Test compounds were dissolved in 100% DMSO to a concentration of 2.5 mM (10 mM if excess compound was weighed out per vial—then diluted to 2.5 mM). […] Test compounds were not added directly to cells, instead they were added to a 48 well ‘Drug Plate’ as comprised below:
(§2) The Drug Plate was incubated at 37° C. for 15 mins. 200 ul of each well was added in triplicate to the corresponding cell plate. The cell plate was incubated at 37 C, for 4 days.
On completion of the assay, 1/10 volume MTS was added per well of plate (ie 25 ul/250 ul). The plates were incubated at 37 C for 2 hrs, and then absorbance was read at 560 nm.

Data set [1] addresses T1, hydrogen peroxide generation by Aβ in the presence of copper (Homo sapiens, UniProt P05067).
T1 construct: The reaction solutions contained Aβ 1-42 at concentrations in the range of 50 nM to 1 μM
The experiment in a line: Fluorometric H2O2 assay (Assay 1). Format: biochemical. The note with it: Aβ 1-42 with Cu-Gly, DCF/HRP, 37 C 60 min; several values in one cell = repeat determinations; read-out: Peroxide IC50. On the procedure:
Assay 1. Fluorometric H2O2 Assay
A fluorometric assay was used to test the ability of a test compound to inhibit hydrogen peroxide generation by Aβ in the presence of copper based on dichlorofluoroscein diacetate (DCF; Molecular Probes, Eugene Oreg.). The DCF solution (5 mM) in 100% dimethyl sulphoxide (previously purged with argon for 2 hr at 20° C.) was deacetylated in the presence of 0.25M NaOH for 30 min and neutralised at pH 7.4 to a final concentration of 1 mM. Horseradish peroxidase (HRP) stock solution was prepared to 1 μM at pH 7.4. The reactions were carried out in PBS, pH 7.4 in a 96 well plate (total volume=250 μl/well). The reaction solutions contained Aβ 1-42 at concentrations in the range of 50 nM to 1 μM, copper-glycine chelate (Cu-Gly), was prepared by adding CuCl2 to glycine in the ratio of 1:6 and added to the Aβ in the proportion 2Cu-Gly: 1Aβ), reducing agents including dopamine (5 μM) or ascorbic acid, deacetylated DCF 100 μM, and HRP, 0.1 μM. […] The reaction mixture was incubated at 37 C for 60 min. […] H2O2 concentration may be established by comparing fluorescence with the H2O2 standards. Inhibition of AB H2O2 production was assayed by including a given concentration of test compound(s) in the test wells.

In data set [2] the test system is Neuronal cortical cells treated with Aβ1-42. The experiment in a line: Assay for Aβ neurotoxicity and Aβ neuroprotection (Assay 3(c)). The data set is classed as cell-based, mouse. The note with it: 20 uM Aβ1-42, 4 days, MTS. On the procedure:
as §1
(c) Assay for Aβ Neurotoxicity and Aβ Neuroprotection
Neuronal cortical cells were cultured for five days as per Assay 2. On day six the neurobasal (NB) media (Invitrogen Life Technologies) and B27 supplement (Invitrogen Life Technologies) were replaced with NB media and B27 supplement (no antioxidants). On day six, test compounds were individually added to the neuronal cell cultures:
Aβ was initially dissolved in 20 mM NaOH to a concentration of 1 mM and sonicated for 5 minutes. The peptide was then diluted in H2O and 10×PBS to a final concentration of 200 uM Aβ in 1×PBS. The peptide was again sonicated for 5 minutes and then spun at 14000 rpm for 5 min and transferred to a fresh tube.
The test compounds were dissolved in 100% DMSO to a concentration of 2.5 mM (10 mM if excess compound was weighed out per vial—then diluted to 2.5 mM). […] Test compounds were not added directly to cells, instead they were added to a 48 well ‘Drug Plate’ as comprised below:
as §2
On the 4th day after treating the cells the assay is completed by adding MTS to the cells.

The subject of data set [3] is Aβ in extract of tissue from post mortem human AD brain. The data set is described as follows: Human brain amyloid solubilisation assay (Assay 9, BAS). The data set is classed as biochemical. The conditions noted are these: solubilising plaques relative to PBS. On the procedure:
Assay 9. Human Brain Amyloid Solubilisation Assay
This assay was performed in order to assess the ability of a test compound to mobilise Aβ from the insoluble to the soluble phase of an extract of tissue from post mortem human AD brain.
Up to 0.5 g of plaque-bearing cortex without meninges was homogenized using a DIAX 900 homogenizer (Heudolph and Co, Kelheim, Germany) or other suitable device for three 30-second periods at full speed in 2 ml of ice-cold phosphate-buffered saline, pH 7.4. To obtain the phosphate-buffered saline-extractable fraction, the homogenate was centrifuged at 100,000×g for 30 min and the supernatant removed. Alternatively, the tissue was freeze dried then pulverised to form a powder which was then weighed out into aliquots for extraction as above. Supernatant, either freeze-dried and resuspended or in unconcentrated form, was dissolved in 200 μl of Tris-Tricine sodium dodecyl sulfate (SDS) sample buffer pH 8.3 containing 8% SDS, 10% 2-mercaptoethanol. Aliquots (10 μl) were then boiled for 10 minutes before SDS-polyacrylamide gel electrophoresis. The insoluble fraction of the cortical samples was obtained by resuspending the initial pelleted sample in 1 ml of phosphate-buffered saline. A 50-μl aliquot of this suspension was then boiled in […] of sample buffer as above.
Tris-Tricine polyacrylamide gel electrophoresis was performed by loading appropriately diluted samples on to 10% to 20% gradient gels (Novex, San Diego, Calif.) followed by transfer on to 0.2-μm nitrocellulose membrane (Bio-Rad, Hercules, Calif.). Aβ was detected by using monoclonal antibody W02, which detects residues 5 through 8, […] (or another suitable antibody) in conjunction with horseradish peroxidase-conjugated rabbit anti-mouse IgG (Dako, Denmark), and visualized by using enhanced chemiluminescence (eg ECL; Amersham Life Science, Buckinghamshire, UK). Each gel included three lanes containing 0.5, 1, and 2 ng of synthetic Aβ40 (Keck Laboratory, Yale University, New Haven, Conn.) as reference standards.
Blot films were scanned by using a suitable imaging system such as the UVP gel documentation system, and densitometry performed using suitable software, eg UVP Labworks. The dynamic range of the film/scanner was determined by using a step tablet (No. 911ST600, Kodak, Rochester N.Y.), a calibrated film exposed by the manufacturer to provided steps of known increasing intensity. The quantifiable range of signal intensity for densitometric analysis of the mono- and dimeric Aβ bands was based on the comparison with a curve obtained by scanning and densitometry of the step tablet.
All samples were analysed at least twice, and gel loadings and dilutions were adjusted to fit within the quantifiable region of the standard curve. […] The insoluble Aβ being comprised of the pelletable fraction derived from the insoluble amyloid plaque from the above cortical samples and the soluble fraction comprising monomeric and/or oligomeric soluble Aβ.

T1 sequence (P05067 672-713 limits assumed): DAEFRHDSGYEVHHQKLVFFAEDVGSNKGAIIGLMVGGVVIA

In the case of `CC(=O)NC(=O)c1ccc2cccc(O)c2n1` [compound 1021], in the data set on Neuronal cortical cells, the “Test Compound Cytoxicity 1 uM” value is listed as 93 and the “Test Compound Cytoxicity 10 uM” value is given as 81. Further, the IC50 in data set [1] is 0.27 µM. Besides, the “% inhibition Abeta toxicity” value in data set [2] is 1%.
For `CSc1ccccc1-c1ccc2cccc(O)c2n1` [compound 1005], in that order: 100, 95, 2.4 µM and 1%.
Take `Oc1cccc2ccc(-c3ccccn3)nc12` [compound 1006]: in the data set on Neuronal cortical cells, the “Test Compound Cytoxicity 1 uM” value turned out to be 92 and the “Test Compound Cytoxicity 10 uM” value is reported as 52. For the same compound, the “BAS Score” value in data set [3] is reported as “++”. Also, the “% inhibition Abeta toxicity” value in data set [2] is recorded as 7%.
For `O/N=C/c1ccc2c(Cl)cc(Cl)c(O)c2n1` [compound 1031], in the data set with Neuronal cortical cells, the “Test Compound Cytoxicity 1 uM” value was determined as 85 and the “Test Compound Cytoxicity 10 uM” value was 81. Also, the IC50 in data set [1] came out at 0.76 µM. Besides, the “% inhibition Abeta toxicity” value in data set [2] is recorded as 8%.
As for `CN(c1ccccn1)c1ccc2c(Cl)cc(Cl)c(O)c2n1` [compound 1056, 5,7-Dichloro-8-hydroxy-2-(methyl-pyridin-2-yl-amino)-quinoline], in the data set on Neuronal cortical cells, the “Test Compound Cytoxicity 1 uM” value is given as 96.44, the “Test Compound Cytoxicity 10 uM” value came to 68.25 and the “Viable 10 uM” value was found to be 68.25. Further, the IC50 in data set [1] turned out to be 0.69 µM. In data set [2], the “% inhibition Abeta toxicity” value is on record as 39%.
For the compound `Oc1cccc2ccc(CN(Cc3ccccn3)Cc3ccccn3)nc12` [compound 1010], in the data set with Neuronal cortical cells, the “Test Compound Cytoxicity 1 uM” value was 88 and the “Test Compound Cytoxicity 10 uM” value is listed as 27. In data set [1], the IC50 was 0.33 µM. Moreover, the “% inhibition Abeta toxicity” value in data set [2] came to 12%.
Regarding `Oc1cccc2ccc(CN(CCc3c[nH]cn3)Cc3nccs3)nc12` [compound 1002], in the data set with Neuronal cortical cells, the “Test Compound Cytoxicity 1 uM” value is 82 and the “Test Compound Cytoxicity 10 uM” value was 34. For the same compound, the IC50 in data set [1] worked out at 0.39 µM. Further, in data set [2], the “% inhibition Abeta toxicity” value is 17%.
For `O=C(O)c1ccc2c(Cl)cc(Cl)c(O)c2n1` [compound 1039] the same measures were 94, 87, > 10 µM and 9%.
In the case of `Oc1c(Br)cc(-c2cc(F)cc(F)c2)c2cccnc12` [compound 853], in the data set with Neuronal cortical cells, the Test Compound Cytoxicity 0.1 um came to 93%, the “Test Compound Cytoxicity 1 uM” value stood at 79, the “Test Compound Cytoxicity 10 uM” value came to 39 and the “Viable 10 uM” value turned out to be 94.79. Further, the “BAS Score” value in data set [3] is recorded as “+”. Also, the “% inhibition Abeta toxicity” value in data set [2] worked out at 31%.
On to `NC(=O)c1ccc2c(Cl)cc(Cl)c(O)c2n1` [compound 1037], for which, in the data set with Neuronal cortical cells, the “Test Compound Cytoxicity 1 uM” value is listed as 88 and the “Test Compound Cytoxicity 10 uM” value was 87. In data set [1], the IC50 is > 10 µM. Further, in data set [2], the “% inhibition Abeta toxicity” value came to 4%.
For the compound `Oc1c(-c2ccccc2C(F)(F)F)cc(Cl)c2cccnc12` [compound 864], in the data set on Neuronal cortical cells, the Test Compound Cytoxicity 0.1 um amounted to 100%, the “Test Compound Cytoxicity 1 uM” value is 88, the “Test Compound Cytoxicity 10 uM” value was determined as 37 and the “Viable 10 uM” value came out at 93.12. For the same compound, in data set [3], the “BAS Score” value is recorded as “+”. The “% inhibition Abeta toxicity” value in data set [2] came to 13%.
Turning to `Cc1cccc(-c2ccc3cccc(O)c3n2)n1` [compound 1007], in the data set on Neuronal cortical cells, the “Test Compound Cytoxicity 1 uM” value was 90 and the “Test Compound Cytoxicity 10 uM” value was 43. The IC50 in data set [1] was 0.58 µM. Besides, the “% inhibition Abeta toxicity” value in data set [2] is recorded as 9%.
`Oc1cccc2ccc(CN(CCc3c[nH]cn3)Cc3c[nH]cn3)nc12` [compound 1008]: in the data set with Neuronal cortical cells, the “Test Compound Cytoxicity 1 uM” value was determined as 86 and the “Test Compound Cytoxicity 10 uM” value was 28. Moreover, the IC50 in data set [1] turned out to be 0.26 µM. In addition, the “% inhibition Abeta toxicity” value in data set [2] was 9%.
For the compound `CO/N=C/c1ccc2c(Cl)cc(Cl)c(O)c2n1` [compound 1032], in the data set on Neuronal cortical cells, the “Test Compound Cytoxicity 1 uM” value stood at 83 and the “Test Compound Cytoxicity 10 uM” value was determined as 42. The IC50 in data set [1] is 1 µM. Also, in data set [2], the “% inhibition Abeta toxicity” value was −2%.
As to `O/N=C/c1ccc2cccc(O)c2n1` [compound 969, 8-Hydroxy-quinoline-2-carboxaldehyde Oxime], in the data set with Neuronal cortical cells, the Test Compound Cytoxicity 0.1 um was 91%, the “Test Compound Cytoxicity 1 uM” value came out at 92, the “Test Compound Cytoxicity 10 uM” value is listed as 90 and the “Viable 10 uM” value came out at 94.55. The “BAS Score” value in data set [3] is given as “+”. The “% inhibition Abeta toxicity” value in data set [2] came out at 2%.
Turning to `Oc1c(Cl)cc(Cl)c2cc(Cl)cnc12` [compound 1058, 3,5,7-trichloro-8-hydroxyquinoline], in the data set with Neuronal cortical cells, the “Test Compound Cytoxicity 1 uM” value worked out at 82.47, the “Test Compound Cytoxicity 10 uM” value is 54.60 and the “Viable 10 uM” value was determined as 54.60. The IC50 in data set [1] amounted to 0.68 µM. Also, the “% inhibition Abeta toxicity” value in data set [2] was 30%.
Regarding `O=C(c1ccc2cccc(O)c2n1)N(Cc1ccccn1)Cc1ccccn1` [compound 1020], in the data set on Neuronal cortical cells, the “Test Compound Cytoxicity 1 uM” value was 85 and the “Test Compound Cytoxicity 10 uM” value is 83. Also, in data set [1], the IC50 was 1.3 µM. Also, the “% inhibition Abeta toxicity” value in data set [2] came to 4%.
On to `Oc1cccc2ccc(CN(Cc3ccccn3)Cc3nccs3)nc12` [compound 1003], for which, in the data set with Neuronal cortical cells, the “Test Compound Cytoxicity 1 uM” value is recorded as 97 and the “Test Compound Cytoxicity 10 uM” value amounted to 38. Moreover, the IC50 in data set [1] amounted to 0.55 µM. Further, in data set [2], the “% inhibition Abeta toxicity” value came out at 17%.
